Measured values taken from PubChem BioAssay AID2060509 (Molecular Pharmacology Branch, DTP, NCI, 2025).

Test system: 485176-168-R4-J1-PDC spheroids with HUVEC/MSC, viability
Test: Anticancer human tumor 485176-168-R4-J1-PDC patient-derived pancreatic adenocarcinoma cell line growth inhibition [GQUAD]
Settings: for IC50: curve of first compound; for viability, T/C: stronger effect = lower value
Text: DNA G-quadruplex Stabilizer Agents in Combinations in Complex Spheroids
A high-throughput screen of multi-cell type tumor spheroids was designed to identify active combinations of DNA G-quadruplex stabilizer agents and targeted small molecules. Complex spheroids include a stromal component modeled by human endothelial cells (HUVEC) and fibroblasts modeled by human mesenchymal stem cells (MSCs). The concentration ranges selected for each drug and investigational agent were based upon clinically achievable concentrations if the clinical Cmax of the agent was known.
Compounds. The drugs and investigational agents: pidnarulex (CX-5461; NSC782164), APTO-253 (NSC789042), BRACO-19 (NSC847499), peposertib (NSC802822), ceralasertib (NSC780249), elimusertib (NSC800525), camonsertib (NSC841442), AZD-1390 (NSC803789), olaparib (NSC753686), talazoparib (NSC767125), ART-558 (NSC835418), sotorasib (NSC818433), MRTX-1133 (NSC836407), SN-38 (NSC673596), topotecan (NSC609699), etoposide (NSC141540), doxorubicin (NSC123127), gemcitabine (NSC613327), 5-fluorouracil (NSC19893), paclitaxel (NSC125973), vemurafenib (NSC761431), panobinostat (NSC761190), R-306465 (JNJ-16241199; NSC773264), adavosertib (NSC754352), TP-3654 (NSC805149), carboplatin (NSC241240), KSQ-4279 (NSC840948), and staurosporine (NSC755774) were obtained from the National Cancer Institute (NCI) Developmental Therapeutics Program Chemical Repository (34). The FDA-approved anticancer drug set is available from the NCI Developmental Therapeutics Program. […] The stock solutions were prepared in dimethyl sulfoxide (DMSO, Sigma-Aldrich, St. Louis, MO, cat. D2650) at 800-fold the tested concentration and stored at -70 degrees C prior to their use. All drugs and investigational agents were tested over a range starting from a high concentration at or near the clinical Cmax and decreasing in half-log increments. If the clinical Cmax for an agent had not been determined, the highest concentration tested was 10 microM.
2.3 Cell Culture. All cells were maintained in an incubator at 37 degrees C and 5% CO2 with 95% humidity. The PDC lines were cultured according to standard operating procedures established by the NCI PDMR. All PDCs were thawed and cultured in Matrigel-coated flasks prepared with a working solution of 1X Ham's F-12 nutrient mix, without supplementation (Invitrogen, cat. 11765054), 100 U/mL penicillin-streptomycin (Invitrogen, cat. 15140122), and 2.5% Matrigel (Corning Inc., cat. 354248) for the first three passages. The 857933-349-R-J2-PDC line was cultured in 6C/Colon 1B media, which includes advanced DMEM/F-12 (Thermo Fisher Scientific, cat. 12634028), 10 mM HEPES (Thermo Fisher Scientific, cat. 15630080), 1X GlutaMAX supplement (Thermo Fisher Scientific, cat. 35050061), 0.1 mg/mL primocin (InvivoGen, cat. ant-pm-2), 10% defined fetal bovine serum, heat inactivated (HyClone Laboratories Inc., cat. SH30070.03HI), 50% L-WRN conditioned media (ATCC, cat. CRL-3276), 1.25 mM N-Acetyl-L-cysteine (Sigma-Aldrich, cat. A9165), 10 mM nicotinamide (Sigma-Aldrich, cat. N0636), 1X B-27 supplement (Thermo Fisher Scientific, cat. 17504044), 1X N-2 supplement (Thermo Fisher Scientific, cat. 17502048), 10 microM Y-27632 dihydrochloride (Tocris Bioscience, cat. 1254), and 50 ng/mL human EGF recombinant protein (Thermo Fisher Scientific, cat. PHG0311). The 485176-168-R4-J1-PDC line was cultured in Panc media, which includes all 6C/Colon 1B media components plus 100 ng/mL human FGF-10 (Thermo Fisher Scientific, cat. 100-26), 500 nM SB-431542 (Selleckchem, cat. S1067), and gastrin (Tocris, cat. 3006).
[…]

[1] = second compound 0.0316 µM, first compound 0.0316 µM
[2] = second compound 0.0316 µM, first compound 0.1 µM
[3] = second compound 0.0316 µM, first compound 0.316 µM
[4] = second compound 0.0316 µM, first compound 1 µM
[5] = second compound 0.0316 µM, first compound 3.16 µM
[6] = second compound 0.0316 µM, first compound 10 µM
[7] = second compound 0.1 µM, first compound 0.0316 µM
[8] = second compound 0.1 µM, first compound 0.1 µM
[9] = second compound 0.1 µM, first compound 0.316 µM
[10] = second compound 0.1 µM, first compound 1 µM
[11] = second compound 0.1 µM, first compound 3.16 µM
[12] = second compound 0.1 µM, first compound 10 µM
[13] = second compound 0.316 µM, first compound 0.0316 µM
[14] = second compound 0.316 µM, first compound 0.1 µM
[15] = second compound 0.316 µM, first compound 0.316 µM
[16] = second compound 0.316 µM, first compound 1 µM
[17] = second compound 0.316 µM, first compound 3.16 µM
[18] = second compound 0.316 µM, first compound 10 µM
[19] = second compound 1 µM, first compound 0.0316 µM
[20] = second compound 1 µM, first compound 0.1 µM
[21] = second compound 1 µM, first compound 0.316 µM
[22] = second compound 1 µM, first compound 1 µM
[23] = second compound 1 µM, first compound 3.16 µM
[24] = second compound 1 µM, first compound 10 µM
[25] = second compound 3.16 µM, first compound 0.0316 µM
[26] = second compound 3.16 µM, first compound 0.1 µM
[27] = second compound 3.16 µM, first compound 0.316 µM
[28] = second compound 3.16 µM, first compound 1 µM
[29] = second compound 3.16 µM, first compound 3.16 µM
[30] = second compound 3.16 µM, first compound 10 µM
[31] = second compound 10 µM, first compound 0.0316 µM
[32] = second compound 10 µM, first compound 0.1 µM
[33] = second compound 10 µM, first compound 0.316 µM
[34] = second compound 10 µM, first compound 1 µM
[35] = second compound 10 µM, first compound 3.16 µM
[36] = second compound 10 µM, first compound 10 µM
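Further: spheroids exposed to compounds for seven days before readout.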
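Wherever viability, T/C is given: percent viability relative to DMSO vehicle control wells as 100%.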

`COc1ncnc(C2CC2)c1-c1ncc2cnn(Cc3ccc(-c4nc(C(F)(F)F)cn4C(C)C)cc3)c2n1` + Cc1cnc(CNC(=O)c2c(=O)c3ccc(N4CCCN(C)CC4)nc3n3c2sc2ccccc23)cn1 was tested, and the IC50 (second compound 0.0316 µM) was greater than 10 µM, the IC50 (second compound 0.1 µM) was greater than 10 µM and the IC50 (second compound 0.316 µM) was greater than 10 µM. The IC50 (second compound 1 µM) was less than 0.0316 µM, the IC50 (second compound 3.16 µM) was less than 0.0316 µM and the IC50 (second compound 10 µM) was less than 0.0316 µM. For the same compound, the viability, T/C [1] was 102%, the viability, T/C [2] was 83.6% and the viability, T/C [3] was 88.9%. For the same compound, the viability, T/C [4] was 89.7%, the viability, T/C [5] was 107% and the viability, T/C [6] was 83.7%. For the same compound, the viability, T/C [7] was 77.3%, the viability, T/C [8] was 86.8% and the viability, T/C [9] was 76.8%. The viability, T/C [10] was 66.2%, the viability, T/C [11] was 67% and the viability, T/C [12] was 81%. The viability, T/C [13] was 54.6%, the viability, T/C [14] was 65.4% and the viability, T/C [15] was 56.4%. For the same compound, the viability, T/C [16] was 73.7%, the viability, T/C [17] was 61.6% and the viability, T/C [18] was 62.9%. The viability, T/C [19] was 50.4%, the viability, T/C [20] was 44.1% and the viability, T/C [21] was 57.7%. For the same compound, the viability, T/C [22] was 52.5%, the viability, T/C [23] was 58.3% and the viability, T/C [24] was 54.9%. It also gave a viability, T/C [25] of 45.1%, a viability, T/C [26] of 47.6% and a viability, T/C [27] of 47%. For the same compound, the viability, T/C [28] was 40.4%, the viability, T/C [29] was 43.8% and the viability, T/C [30] was 47%. It also gave a viability, T/C [31] of 36.1%, a viability, T/C [32] of 47.7% and a viability, T/C [33] of 40.3%. The viability, T/C [34] was 34.4%, the viability, T/C [35] was 40.5% and the viability, T/C [36] was 39.6%.

`COc1ncnc(C2CC2)c1-c1ncc2cnn(Cc3ccc(-c4nc(C(F)(F)F)cn4C(C)C)cc3)c2n1` + CN(C)c1ccc(Nc2c3ccc(NC(=O)CCN4CCCC4)cc3nc3cc(NC(=O)CCN4CCCC4)ccc23)cc1 was tested, and the IC50 (second compound 0.0316 µM) was greater than 10 µM, the IC50 (second compound 0.1 µM) was greater than 10 µM and the IC50 (second compound 0.316 µM) was greater than 10 µM. It also gave an IC50 (second compound 1 µM) greater than 10 µM, an IC50 (second compound 3.16 µM) greater than 10 µM and an IC50 (second compound 10 µM) greater than 10 µM. It also gave a viability, T/C [1] of 86.9%, a viability, T/C [2] of 83.5% and a viability, T/C [3] of 109%. For the same compound, the viability, T/C [4] was 107%, the viability, T/C [5] was 97.8% and the viability, T/C [6] was 94.3%. The viability, T/C [7] was 123%, the viability, T/C [8] was 95.2% and the viability, T/C [9] was 106%. It also gave a viability, T/C [10] of 93.3%, a viability, T/C [11] of 104% and a viability, T/C [12] of 89.5%. For the same compound, the viability, T/C [13] was 96.3%, the viability, T/C [14] was 95.5% and the viability, T/C [15] was 103%. For the same compound, the viability, T/C [16] was 96%, the viability, T/C [17] was 87.4% and the viability, T/C [18] was 98%. For the same compound, the viability, T/C [19] was 88.1%, the viability, T/C [20] was 97.1% and the viability, T/C [21] was 105%. For the same compound, the viability, T/C [22] was 74.3%, the viability, T/C [23] was 99.9% and the viability, T/C [24] was 83.3%. The viability, T/C [25] was 94.3%, the viability, T/C [26] was 96.8% and the viability, T/C [27] was 87.9%. For the same compound, the viability, T/C [28] was 102%, the viability, T/C [29] was 92.5% and the viability, T/C [30] was 88.1%. The viability, T/C [31] was 90.5%, the viability, T/C [32] was 81.2% and the viability, T/C [33] was 86.8%. The viability, T/C [34] was 86.8%, the viability, T/C [35] was 72.4% and the viability, T/C [36] was 70.2%.
